Results reported in US20210220376A1, “ADDICTION TREATMENT OF AN ALCOHOL-CONSUMING PATIENT POPULATION” (Amygdala Neurosciences, Inc., priority 2018, published 2021).

Tested on: healthy male alcohol drinkers
Assay: Phase 1 single-ascending-dose study of compound (2) coadministered with ethanol: safety
Assay type: in vivo, human
Protocol: This was a single-center, randomized, double-blind, placebo-controlled, single-ascending-dose cohort study to evaluate the safety and tolerability of the coadministration of up to 6 dose levels of compound (2) (25 mg, 50 mg, 100 mg, 200 mg, 400 mg and 600 mg) and EtOH in healthy male alcohol drinkers.
Within 27 days of the medical screening visit, subjects were enrolled and attended an inpatient Qualification Phase in which they received up to 5 standard drinks (14 grams of EtOH each; oral solution of vodka containing 40% [v/v] EtOH, mixed with a non-carbonated beverage, one drink every 30 minutes) to evaluate their tolerance to repeat administration to ensure they could safely tolerate the planned EtOH treatment. A minimum washout interval of 44 hours was performed between initiation of the last EtOH administration in the Qualification Phase and study drug administration in the Treatment Phase.
Following qualification, eligible subjects were enrolled and randomized to receive compound (2) or placebo in a 3:1 fashion in each of 6 cohorts (8 subjects per cohort). As a safety precaution, no more than 4 subjects were administered study drug on any given day. Planned compound (2) dose levels included doses of 25 mg, 50 mg, 100 mg, 200 mg, 400 mg, and 600 mg. Study drug administration occurred approximately 1 hour following ingestion of a standardized (moderate-fat) meal. Approximately 2 hours after receiving the study drug, subjects began a session of repeat EtOH administration, during which they could receive up to 5 doses of EtOH (14 grams each, approximately 1 standard drink) every 30 minutes, or until a stopping criterion applied. Safety assessments, pharmacodynamic assessments and pharmacokinetic blood sample collections were obtained up to 48 hours post-dose. Subjects were discharged after 48-hour post-dose procedures were completed and the investigator deemed it safe to do so. Subjects returned for the safety follow-up visit approximately 7 (±2) days following discharge from the Treatment Phase or after early discontinuation from the study.
The primary endpoints included frequency and severity of adverse events (AEs), ethanol reaction (ER) scores and flushing, laboratory values, vital signs, and electrocardiograms (ECGs).
Subjects' ER scores and flushing were summarized descriptively by timepoint, category and treatment. In addition, flushing, ER heat sensation and ER palpitation were compared between each of the active doses and placebo using a mixed-effect model for repeated measures (MMRM) analysis with treatment, visit, and treatment by visit as fixed effects and baseline as a covariate. The actual value was used as the dependent variable and visit included pre-EtOH, 30 minutes, 60 minutes, 90 minutes, 120 minutes, 150 minutes and 3 hours relative to the first EtOH administration in Treatment Phase. The variance-covariance matrix was assumed to be unstructured. […] Results were presented as least square means (LSMEANS), treatment differences in LSMEANS, 95% confidence intervals (CI) and p-values.
Vital signs measurements (respiratory rate, systolic and diastolic blood pressure, and heart rate) were summarized by treatment and visit. Heart rate and diastolic blood pressure were also compared between each of the active doses and placebo using an MMRM analysis with treatment, visit, and treatment by visit as fixed effects and baseline as a covariate.
Twelve-lead ECG results were summarized by timepoint and treatment, and frequencies (numbers and percentages) were calculated for the overall evaluation. Concomitant medications, clinical laboratory evaluations (raw data and change from baseline, as applicable) and physical examination findings were listed.

[1] = 200 mg, 135 min after first EtOH
[2] = 400 mg, 15 min after first EtOH
[3] = 400 mg, 45 min after first EtOH
[4] = 400 mg, 75 min after first EtOH
[5] = 400 mg, 105 min after first EtOH
[6] = 400 mg, 135 min after first EtOH
[7] = 600 mg, 15 min after first EtOH
[8] = 600 mg, 45 min after first EtOH
[9] = 600 mg, 75 min after first EtOH
[10] = 600 mg, 105 min after first EtOH
[11] = 600 mg, 135 min after first EtOH
[12] = Overall (N = 36), 15 min after first EtOH
[13] = Overall (N = 36), 45 min after first EtOH
[14] = Overall (N = 36), 75 min after first EtOH
[15] = Overall (N = 36), 105 min after first EtOH
[16] = Overall (N = 36), 135 min after first EtOH

O=C(NCc1ccc(-c2ccn(COP(=O)(O)O)c(=O)c2)cc1)c1c(Cl)cccc1Cl [Compound (2), phosphoric acid mono-(4-{4-[(2,6-dichloro-benzoylamino)-methyl]-phenyl}-2-oxo-2H-pyridin-1-ylmethyl) ester]
Diastolic Blood Pressure, Mean [1]: 69.3 mmHg
Heart Rate, Mean [1]: 96.2 beats/min
Systolic Blood Pressure, Mean [1]: 124.0 mmHg
Diastolic Blood Pressure, Mean (200 mg, Pre-EtOH): 73.8 mmHg
Heart Rate, Mean (200 mg, Pre-EtOH): 60.2 beats/min
Systolic Blood Pressure, Mean (200 mg, Pre-EtOH): 119.8 mmHg
subjects with TEAE of sinus tachycardia (200 mg, after EtOH): three
subjects with TEAE of tachycardia (200 mg, after EtOH): one
subjects with TEAE of tachypnea (200 mg, after EtOH): One
QTcF Interval, Aggregate, Mean (200 mg, prior to initiation of repeat EtOH administration session): 400.2 ms
subjects reporting a TEAE (400 mg): 100%
Diastolic Blood Pressure, Mean [2]: 71.3 mmHg
Systolic Blood Pressure, Mean [2]: 112.8 mmHg
Diastolic Blood Pressure, Mean [3]: 71.8 mmHg
Heart Rate, Mean [3]: 81.2 beats/min
Systolic Blood Pressure, Mean [3]: 120.0 mmHg
QTcF Interval, Aggregate, Mean (400 mg, 1 hour after initiation of repeat EtOH administration session): 394.8 ms
Diastolic Blood Pressure, Mean [4]: 70.5 mmHg
Heart Rate, Mean [4]: 82.7 beats/min
Systolic Blood Pressure, Mean [4]: 119.3 mmHg
Diastolic Blood Pressure, Mean [5]: 72.2 mmHg
Heart Rate, Mean [5]: 86.2 beats/min
Systolic Blood Pressure, Mean [5]: 118.5 mmHg
Diastolic Blood Pressure, Mean [6]: 71.0 mmHg
Heart Rate, Mean [6]: 83.7 beats/min
Systolic Blood Pressure, Mean [6]: 118.8 mmHg
Diastolic Blood Pressure, Mean (400 mg, Pre-EtOH): 71.7 mmHg
Heart Rate, Mean (400 mg, Pre-EtOH): 61.2 beats/min
Systolic Blood Pressure, Mean (400 mg, Pre-EtOH): 115.3 mmHg
QTcF Interval, Aggregate, Mean (400 mg, prior to initiation of repeat EtOH administration session): 396.7 ms
subjects reporting a TEAE (600 mg): 83.3%
Diastolic Blood Pressure, Mean [7]: 75.0 mmHg
Systolic Blood Pressure, Mean [7]: 122.3 mmHg
Diastolic Blood Pressure, Mean [8]: 75.0 mmHg
Heart Rate, Mean [8]: 85.2 beats/min
Systolic Blood Pressure, Mean [8]: 127.3 mmHg
QTcF Interval, Aggregate, Mean (600 mg, 1 hour after initiation of repeat EtOH administration session): 394.3 ms
Diastolic Blood Pressure, Mean [9]: 74.2 mmHg
Heart Rate, Mean [9]: 91.8 beats/min
Systolic Blood Pressure, Mean [9]: 130.2 mmHg
Diastolic Blood Pressure, Mean [10]: 72.0 mmHg
Heart Rate, Mean [10]: 91.8 beats/min
Systolic Blood Pressure, Mean [10]: 126.8 mmHg
Diastolic Blood Pressure, Mean [11]: 74.8 mmHg
Heart Rate, Mean [11]: 92.3 beats/min
Systolic Blood Pressure, Mean [11]: 127.7 mmHg
Diastolic Blood Pressure, Mean (600 mg, Pre-EtOH): 75.2 mmHg
Heart Rate, Mean (600 mg, Pre-EtOH): 61.2 beats/min
Systolic Blood Pressure, Mean (600 mg, Pre-EtOH): 120.2 mmHg
QTcF Interval, Aggregate, Mean (600 mg, prior to initiation of repeat EtOH administration session): 393.8 ms
deaths or serious adverse events (25-600 mg oral with up to 5 doses of EtOH (14 g each)): no deaths or serious adverse events
Diastolic Blood Pressure, Mean [12]: 74.0 mmHg
Systolic Blood Pressure, Mean [12]: 118.8 mmHg
Diastolic Blood Pressure, Mean [13]: 73.4 mmHg
Heart Rate, Mean [13]: 76.6 beats/min
Systolic Blood Pressure, Mean [13]: 122.0 mmHg
QTcF Interval, Aggregate, Mean (Overall (N = 36), 1 hour after initiation of repeat EtOH administration session): 401.1 ms
Diastolic Blood Pressure, Mean [14]: 72.5 mmHg
Heart Rate, Mean [14]: 82.9 beats/min
Systolic Blood Pressure, Mean [14]: 122.3 mmHg
Diastolic Blood Pressure, Mean [15]: 71.3 mmHg
Heart Rate, Mean [15]: 85.3 beats/min
Systolic Blood Pressure, Mean [15]: 121.7 mmHg
Diastolic Blood Pressure, Mean [16]: 72.8 mmHg
Heart Rate, Mean [16]: 82.5 beats/min
Systolic Blood Pressure, Mean [16]: 121.3 mmHg
Diastolic Blood Pressure, Mean (Overall (N = 36), Pre-EtOH): 73.4 mmHg
Heart Rate, Mean (Overall (N = 36), Pre-EtOH): 59.3 beats/min
Systolic Blood Pressure, Mean (Overall (N = 36), Pre-EtOH): 117.3 mmHg
QTcF Interval, Aggregate, Mean (Overall (N = 36), prior to initiation of repeat EtOH administration session): 399.4 ms
changes in diastolic blood pressure compared with placebo (after EtOH administration): no significant changes
changes in systolic blood pressure compared with placebo (after EtOH administration): no significant changes
subjects reporting a TEAE (all compound (2)-treated subjects): 88.9%
incidence of flushing and feeling hot compared with placebo (all doses): higher
compound (2)-treated subjects who did not consume all 5 EtOH administrations due to TEAEs (all doses, N = 36): 5.6%
flushing (all other doses (50-600 mg)): observed
tolerability (all treatments): generally well tolerated
ER subjective assessment compared with placebo (heat sensation, palpitations): more likely to report feeling heat sensation and feeling palpitations
